Laboratory results: patent US8791163B2 (McGill University, priority 2006, dated 2014)
Where “and” joins values, the source holds several entries; their conditions need not be identical. Equal entries are not always repeated.

Tests used:
[1] = target: T1, cloned human MT2 receptors (Homo sapiens, UniProt P49286); experiment: [35S]GTPγS binding assay, NIH3T3 cells expressing human MT2; format: biochemical; conditions: maximal net effect relative to MLT
T1 construct: expressed in transfected cells
T1 sequence (P49286 1-362): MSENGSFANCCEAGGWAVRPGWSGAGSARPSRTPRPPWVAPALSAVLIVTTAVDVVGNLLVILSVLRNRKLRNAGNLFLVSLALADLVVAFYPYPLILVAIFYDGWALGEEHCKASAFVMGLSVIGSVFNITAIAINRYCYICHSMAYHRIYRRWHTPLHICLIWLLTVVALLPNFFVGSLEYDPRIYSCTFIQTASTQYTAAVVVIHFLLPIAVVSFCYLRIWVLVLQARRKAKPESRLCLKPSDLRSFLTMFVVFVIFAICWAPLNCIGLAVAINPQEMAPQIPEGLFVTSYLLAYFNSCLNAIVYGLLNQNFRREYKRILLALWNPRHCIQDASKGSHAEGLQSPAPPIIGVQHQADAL

[2] = tested on: Adult Sprague Dawley rats; experiment: Elevated plus maze (EPM); format: in vivo, rat; conditions: for Head Dips / Percentage of time in Closed Arms / Percentage of time in Open Arms / Total time duration in the Closed Arms / Total time duration in the Open Arms: injected 60 min before test
Experimental: The maze is comprised of two open arms (50×10 cm) and two closed arms (50×10×40 cm) that extend from a common central platform (10×10 cm). The apparatus, made of wood (painted black) was elevated to a height of 80 cm above floor level. The closed arms are located opposite one another. Behavior is recorded over a period of 5 min using a video camera positioned directly above the maze and rated by an observer blind to drug conditions. The major measure of interest is the amount of time spent in the open arms. As an index of general activity and distribution, the total number of entries into both open and closed arms was also recorded. […] In order to increase the sensitivity of this test to anxiolytic activity, tests are carried out under normal room illumination (25 W bulb).

[3] = tested on: Sprague Dawley rats; experiment: Novelty-Induced Suppressed Feeding (NSF) Test; format: in vivo, rat; conditions: for Latency (sec) to feed: 60 min before the test
Experimental: The NSF test is used to assess the anti-anxiety effect of a drug [Bodnoff et al. Psychopharmacology 1988, 95(3), 298-307]. Sprague Dawley rats were used in the NSF test. The testing apparatus comprises a brightly lit open area covered with lab chow pellets. Forty-eight hours prior to behavioral testing, all food was removed from the apparatus. Animals treated with compound 5b (40 or 80 mg/kg) were injected 60 min before the test, whereas animals treated with vehicle (DMSO/saline 7:3) or diazepam were injected 45 min before the test. The drugs were administered subcutaneously and the experiments were conducted after 5:30 PM. The latency to feed, defined as chewing the food as opposed to merely sniffing or playing with a pellet, was then recorded (Table 6). The experiment was terminated for those animals that had not begun eating within a period of 360 seconds, which animals were assigned a latency score of 360 seconds. All analyses were conducted using Sigma Stats and SPSS software. The results are expressed as the mean±SEM per n (number) animals tested (*, p<0.01, ANOVA or t test).

[4] = 5b 40, 60 and 80 mg/kg, injected 60 min before the test, vs vehicle

In the case of `COc1cccc(N(CCNC(C)=O)c2ccccc2)c1` [5b, N-{2-[(3-Methoxyphenyl)-phenylamino]ethyl}acetamide], the “MT2 IAr ± SEM (relative intrinsic activity)” value [1] is reported as 0.6 and 0.61 ± 0.04, the “Head Dips” value ([2]; 5b 40 mg/kg) is reported as 6.30 ± 0.98 and the “Percentage of time in Closed Arms” value ([2]; 5b 40 mg/kg) is reported as 82.30 ± 2.63%. The “Percentage of time in Open Arms” value ([2]; 5b 40 mg/kg) was 17.7 ± 2.6%, the “Total time duration in the Closed Arms” value ([2]; 5b 40 mg/kg) was 219.4 ± 9.38 sec/closed arm and the “Total time duration in the Open Arms” value ([2]; 5b 40 mg/kg) was 47.4 ± 6.86 sec/open arm. The “Head Dips” value ([2]; 5b 60 mg/kg) was 8.27 ± 1.42, the “Percentage of time in Closed Arms” value ([2]; 5b 60 mg/kg) was 74.47 ± 4.06 (P = 0.02) % and the “Percentage of time in Open Arms” value ([2]; 5b 60 mg/kg) was 25.5 ± 4.1 (P = 0.02) %. For the same compound, the “Total time duration in the Closed Arms” value ([2]; 5b 60 mg/kg) was 199.83 ± 11.33 (P = 0.01) sec/closed arm, the “Total time duration in the Open Arms” value ([2]; 5b 60 mg/kg) was 68.93 ± 11.02 (P = 0.02) sec/open arm and the “Head Dips” value ([2]; 5b 80 mg/kg) was 9.91 ± 1.50 (P = 0.02). The “Percentage of time in Closed Arms” value ([2]; 5b 80 mg/kg) was 68.18 ± 4.84 (P = 0.007) %, the “Percentage of time in Open Arms” value ([2]; 5b 80 mg/kg) was 31.8 ± 4.8 (P = 0.003) % and the “Total time duration in the Closed Arms” value ([2]; 5b 80 mg/kg) was 181.68 ± 14.32 (P = 0.006) sec/closed arm. The “Total time duration in the Open Arms” value ([2]; 5b 80 mg/kg) was 79.16 ± 12.0 (P = 0.001) sec/open arm, the “number of head dips (FIG. 4)” value ([2]; 5b 40, 60 and 80 mg/kg, injected 60 min before the test) was “increase in the number of head dips” and the “time in the open arms, percentage of time (FIG. 3)” value [2, 4] was “spent more time in the open arms”. For the same compound, the “time in the open arms, total time expressed in seconds (FIG. 2)” value [2, 4] was “spent more time in the open arms”, the “Latency (sec) to feed” value ([3]; 5b 40 mg/kg s.c.) was 106.75 ± 10.13 (P ≦ 0.001)* sec and the “Latency (sec) to feed” value ([3]; 5b 80 mg/kg s.c.) was 115.28 ± 13.89 (P ≦ 0.001)* sec. For the same compound, the “latency to feed (FIG. 5)” value ([3]; 5b 40 and 80 mg/kg, injected 60 min before the test, vs vehicle) was “decreased latency to feed”.
